These results are taken from ChEMBL document CHEMBL4024731, “Cytotoxic steroidal saponins from Trillium kamtschaticum” (Bioorg Med Chem Lett, 2017).

Molecules are shown by their SMILES. pIC50: −log10 of the molar value. Bounds are passed on as bounds.

This experiment concerns HCT-116. Put plainly: Cytotoxicity against human HCT116 cells after 48 hrs by MTT assay. Format: functional, cell-based. The settings on record: HCT-116, 48 h.
For the compound `CC(=O)OC[C@H]1[C@@H]2C3=C(C(=O)[C@@H]2O[C@@]12OC[C@H](C)[C@@H](O)[C@@H]2O)[C@@H]1CC=C2C[C@@H](O)C[C@@H](O[C@@H]4OC[C@H](O)[C@H](O)[C@H]4O[C@@H]4O[C@@H](C)[C@H](OC(C)=O)[C@@H](O[C@@H]5OC[C@](O)(CO)[C@H]5O)[C@H]4O)[C@]2(C)[C@H]1CC3`, the pIC50 is 5.31.
In the case of `C/C(C(=O)CC[C@@H](C)CO[C@@H]1O[C@H](CO)[C@@H](O)[C@H](O)[C@H]1O)=C1/C(=O)C[C@H]2[C@@H]3CC=C4C[C@@H](O[C@@H]5O[C@H](CO)[C@@H](O[C@@H]6O[C@@H](C)[C@H](O)[C@@H](O)[C@H]6O)[C@H](O)[C@H]5O)CC[C@]4(C)[C@H]3CC[C@]12C` it was 4.76.
On to `CC(=O)O[C@H]1[C@@H](C)CO[C@@]2(O[C@H]3C(=O)C4=C(CC[C@H]5[C@H]4CC=C4C[C@@H](O)C[C@@H](O[C@@H]6OC[C@H](O)[C@H](O[C@@H]7OC[C@@H](O)[C@H](O)[C@H]7O)[C@H]6O[C@@H]6O[C@@H](C)[C@H](O)[C@@H](O[C@@H]7OC[C@](O)(CO)[C@H]7O)[C@H]6O)[C@@]45C)[C@H]3[C@@H]2CO)[C@H]1O`, for which the pIC50 is 5.23.
On to `CC1=C2[C@](O)(C[C@H]3[C@@H]4CC=C5C[C@@H](O[C@@H]6O[C@H](CO)[C@@H](O[C@@H]7O[C@@H](C)[C@H](O)[C@@H](O)[C@H]7O)[C@H](O)[C@H]6O[C@@H]6O[C@@H](C)[C@H](O)[C@@H](O)[C@H]6O)CC[C@]5(C)[C@H]4CC[C@]23C)[C@@H](C[C@@H](C)CO[C@@H]2O[C@H](CO)[C@@H](O)[C@H](O)[C@H]2O)C1=O`, for which the negative-log IC50 (pIC50) is below 4.40.
In the case of `Cc1c(CCC(C)CO)ccc2c1[C@@]1(C)CC[C@H]3[C@@H](CC=C4C[C@@H](O[C@@H]5O[C@H](CO)[C@@H](O)[C@H](O)[C@H]5O[C@@H]5O[C@@H](C)[C@H](O)[C@@H](O)[C@H]5O)CC[C@@]43C)[C@@H]1C2` (stereo not given in full) it was below 4.40; in that of `C[C@@H]1O[C@@H](O[C@H]2[C@H](O[C@H]3CC[C@@]4(C)C(=CC[C@@H]5[C@@H]4CC[C@]4(C)C(=O)OC[C@@H]54)C3)O[C@H](CO)[C@@H](O)[C@@H]2O)[C@H](O)[C@H](O)[C@H]1O`, below 4.40.
With `COC(=O)/C(C)=C1\C(=O)C[C@H]2[C@@H]3CC=C4C[C@@H](O[C@@H]5O[C@H](CO)[C@@H](O)[C@H](O)[C@H]5O[C@@H]5O[C@@H](C)[C@H](O)[C@@H](O)[C@H]5O)CC[C@]4(C)[C@H]3CC[C@]12C` the figure was below 4.40.
With `CC(=O)OC[C@H]1[C@@H]2C3=C(C(=O)[C@@H]2O[C@@]12OC[C@H](C)[C@@H](O)[C@@H]2O)[C@@H]1CC=C2C[C@@H](O)C[C@@H](O[C@@H]4OC[C@H](O)[C@H](O[C@@H]5OC[C@@H](O)[C@H](O)[C@H]5O)[C@H]4O[C@@H]4O[C@@H](C)[C@H](O)[C@@H](O[C@@H]5OC[C@](O)(CO)[C@H]5O)[C@H]4O)[C@]2(C)[C@H]1CC3` the figure was 4.65; with `C/C(C(=O)CC[C@@H](C)CO[C@@H]1O[C@H](CO)[C@@H](O)[C@H](O)[C@H]1O)=C1/C(=O)C[C@H]2C3CC=C4C[C@@H](O[C@@H]5O[C@H](CO)[C@@H](O)[C@H](O)[C@H]5O[C@@H]5O[C@@H](C)[C@H](O)[C@@H](O)[C@H]5O)CC[C@]4(C)[C@H]3CC[C@]12C` (single isomer, unassigned), 4.90.
Take `CC[C@@]1(O)C(=O)OCc2c1cc1n(c2=O)Cc2cc3ccccc3nc2-1` [CAMPTOTHECIN]: the pIC50 was 7.94.

By pIC50 is commonly meant the negative decadic logarithm of the IC50, by convention in mol/L. Read a low pIC50 as a large IC50.
